These results are taken from patent publication US8546435B2, “Triazole derivatives with improved receptor activity and bioavailability properties as ghrelin antagonists of growth hormone secretagogue receptors” (AEterna Zentaris GmbH, priority 2010, dated 2013).

Data set [1] can be described thus: Stability in liver microsomes. It counts as in vitro ADME, human. Particulars: @37° C./1 mg/ml Liver Microsomes, 10 μM. On the procedure: (§1) Metabolic stability in liver microsomes of different species (in the presence of NADPH, 1 mg/ml microsomal protein) was evaluated at 37° C. over time in triplicates at a test concentration of 10 μM. Loss of parent compound is measured by an HPLC-based UV detection method. For prediction of rat hepatic clearance half-lives (t1/2) were fitted from first-order rate constant k (min^−1) obtained from the slope of time versus In % remaining.

For data set [2], the target named is CYP3A4 (Homo sapiens (Human), UniProt P08684). Kind of data set: CYP3A4 inhibition in human liver microsomes, direct and metabolism-dependent. The data set is classed as in vitro ADME. On the procedure: Direct and metabolism-dependent inhibition of CYP enzymes are assessed with specific marker substrates by a HPLC-based UV detection method in human liver microsomes. Incubations are carried out as doublets with final concentrations ranging from 0.01 to 200 μM (30 min, 37° C.). Metabolism-dependent inhibition was assessed by incubation for 30 minutes in the presence of NADPH prior to the addition of marker substrate to allow the generation of metabolites. Percent inhibition is plotted against concentration to calculate or extrapolate IC50 values from the sigmoid curve.

Data set [3] can be described thus: Stability in liver microsomes. The data set is classed as in vitro ADME, rat. Particulars: @37° C./1 mg/ml Liver Microsomes, 10 μM. On the procedure:
as §1

The target of data set [4] is MDR-1 (P-glycoprotein, Pgp) (Homo sapiens (Human), UniProt P08183). The experiment in a line: Inhibition of MDR1 ATPase (Pgp-Glo assay, SF9 membrane preparations). It counts as biochemical. How it is done:
For detection of MDR-1 (P-glycoprotein, Pgp) ATPase activity commercially available membrane preparations of MDR-1 overexpressing SF9 insect cells (SB-MDR1-Sf9-ATPase Membrane; 2.5 mg/500 μL; Solvo/tebu-bio #168SB-MDR1-Sf9-ATPase) were used. Since transport by MDR-1 is ATP-dependent, ATP consumption indicates transport activity of MDR-1. ATP consumption is detected as a decrease in luminescence from a second reaction with a recombinant firefly luciferase by using the Pgp-Glo™ Assay Kit (Promega # V3591).

Data set [5] has as its target T1, Human Ghrelin Receptor (GHS-R 1A) (Homo sapiens (Human), UniProt Q92847). The experiment in a line: CRE/Luc reporter gene assay, antagonist. It counts as cell-based. Particulars: 6 h, 1 μM rolipram. From the text: (§2) Mouse LTK-cells (ATCC CCL-1.3) were stably transfected with a plasmid containing the CMV minimal promoter (CMVmin) linked to three cAMP response elements (CRE) followed by a luciferase reporter gene. Based on this parental cell line, single cell clones stably overexpressing the human, rat or mouse GHS-R 1A have been established and characterized with respect to suitability for the different assay formats.
For the CRE/Luc reporter gene assay, the mouse LTK-cells stably expressing the human GHS-1RA and a luciferase reporter gene under the control of CRE elements and the CMV minimal promoter were incubated for 6 h with 1 μM rolipram in the presence of different concentrations of AEZS-130. Subsequently, cells were lysed and ATP bioluminescence was measured in the luminescence mode on FlexStation3 (Molecular Devices).
(§3) IC50 values were determined by using the GraphPad Prism analysis program (GraphPad Software).
(§4) Values given are either single measurements or mean values of up to nine independent experiments performed in duplicate (binding) or quadruplicate (functional assays) measurements.

Data set [6] can be described thus: CaCo-2 permeability assay. It counts as in vitro ADME. Particulars: human; for Papp A→B at 2 h: a to b, read-out: CaCo-2 Assay Papp ab; for Papp A→B at 2 h / Papp B→A at 2 h: 3 or 5 μM, 2 hours at 37° C.; for Papp B→A at 2 h: b to a, read-out: CaCo-2 Assay Papp ba; for efflux ratio at 2 h: read-out: CaCo-2 Assay ba/ab. On the procedure: For the CaCo-2 permeability assay 80.000 CaCo-2 cells (ATCC HTB-37) were seeded in DMEM supplemented with 10% FCS, 1% Penicillin/Streptomycin and 1% non-essential amino acids per 24 well transwell plate (Corning 3397) and were grown for 21 days by changing the media every second day. On day 21 the medium was replaced by HBSS buffer (Invitrogen #14065) supplemented with 0.25% and 1% BSA for the donor and acceptor compartment, respectively. The compounds were added to the respective donor compartment in a concentration of 3 or 5 μM and were incubated for 2 hours at 37° C. The respective compound concentrations were determined by LC-MS analytics using an API 2000. Data analysis was performed as described by Sun and Pang 2008, Drug Metabolism and Disposition 36, 102-123.

Data set [7] addresses hERG channel (Homo sapiens (Human), UniProt Q12809). The experiment in a line: Predictor hERG Fluorescence Polarization Assay. The data set is classed as binding. From the text:
The Predictor™ hERG Fluorescence Polarization Assay (Invitrogen, Karlsruhe, GER) determines whether test compounds block the hERG channel [Piper, D. R. et al., Assay Drug Dev Technol. 2008, 6(2):213-23]. The assay uses a membrane fraction containing hERG channel protein (Predictor™ hERG Membrane) and a high-affinity red fluorescent hERG channel ligand, or “tracer” (Predictor™ hERG Tracer Red), in a homogenous, fluorescence polarization (FP)-based format. Compounds that bind to the hERG channel protein (competitors) are identified by their ability to displace the tracer, resulting in a lower fluorescence polarization. The assay was performed according to guidelines of the manufacturer

For data set [8], the target named is T1, Human Ghrelin Receptor (GHS-R 1A). The experiment in a line: Calcium release, antagonist. The data set is classed as cell-based. Particulars: 15 minutes preincubation, then ghrelin.
From the text: as §2
(§5) For determination of calcium release the respective cell line was loaded with Fluo-4 NW Calcium Assay Kit (Moleculare Probes/Invitrogen # F10741) for 80 min @ 37° C. After 15 minutes of preincubation with different concentrations of the test compounds ghrelin was added and the signal was monitored for 60 seconds by a FlexStation3 microplate reader (Molecular Devices).
as §3, §4

Data set [9] in a line: Stability in liver microsomes. It counts as in vitro ADME, mouse. Particulars: 37° C./1 mg/ml Liver Microsomes, 10 μM. How it is done:
as §1

For data set [10], the target named is Mouse Ghrelin Receptor (GHS-R 1A) (Mus musculus (Mouse), UniProt Q99P50). The experiment in a line: Calcium release, antagonist. The data set is classed as cell-based.
From the text: as §2, §5, §3
(§6) In the following table 1 results obtained for selected compounds of the invention are presented in comparison to compound 50 disclosed in WO07/020,013. Values given are either single measurements or mean values of up to nine independent experiments performed in duplicate (binding) or quadruplicate (functional assays) measurements.

In data set [11] the target is Rat Ghrelin Receptor (GHS-R 1A) (Rattus norvegicus (Rat), UniProt O08725). Kind of data set: Calcium release, antagonist. It counts as cell-based.
From the text: as §2, §5, §3, §6

The target in data set [12] is T1, Human Ghrelin Receptor (GHS-R 1A). Kind of data set: Competitive binding, iodinated ghrelin tracer, intact LTK-cells overexpressing GHS-R 1A. Particulars: 60 min at 37° C.
From the text: as §2
For receptor competitive binding studies, iodinated ghrelin was used as a tracer at conditions of about 80% saturation binding. Different concentrations of the test compounds were analyzed for displacement of the tracer. For this purpose, the suspension of intact cells plus tracer mix and different test compound concentrations was layered on top of silicon/paraffin oil, incubated for 60 min at 37° C. and subjected to centrifugation. After freezing in liquid nitrogen the cell pellets were separated from the supernatant by cutting the tubes in the intermediate silicon/paraffin oil section and analyzed by γ-radiation analysis. The amount of unspecific binding was determined by including unlabeled ghrelin at 1 μM final concentration.
as §3, §4

[13] abbreviates: 15 minutes preincubation, then ghrelin, read-out: Mouse Ghrelin Receptor Antagonist Calcium Release IC50.
[14] abbreviates: 15 minutes preincubation, then ghrelin, read-out: Rat Ghrelin Receptor Antagonist Calcium Release IC50.
Setting [15] is: marker substrate midazolam, 30 minutes preincubation with NADPH, read-out: CYP3A4 Inhibition Midazolam Preincubation EC50.
The mark [16] stands for this setting: marker substrate midazolam, direct inhibition, human liver microsomes, read-out: CYP3A4 Inhibition Midazolam EC50.

Like-named read-outs stand apart in the source and are kept apart here.

T1 sequence (Q92847 whole entry): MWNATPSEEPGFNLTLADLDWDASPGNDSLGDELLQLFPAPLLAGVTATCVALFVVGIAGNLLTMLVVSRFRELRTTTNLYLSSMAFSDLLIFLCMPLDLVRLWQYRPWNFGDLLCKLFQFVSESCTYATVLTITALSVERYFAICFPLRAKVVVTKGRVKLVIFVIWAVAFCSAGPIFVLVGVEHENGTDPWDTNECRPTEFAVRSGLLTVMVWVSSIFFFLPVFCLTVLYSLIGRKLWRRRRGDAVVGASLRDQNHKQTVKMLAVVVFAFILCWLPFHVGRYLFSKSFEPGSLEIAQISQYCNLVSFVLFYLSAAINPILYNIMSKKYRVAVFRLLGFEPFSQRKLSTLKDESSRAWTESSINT
Chain of Mouse Ghrelin Receptor (GHS-R 1A) (Q99P50 whole entry): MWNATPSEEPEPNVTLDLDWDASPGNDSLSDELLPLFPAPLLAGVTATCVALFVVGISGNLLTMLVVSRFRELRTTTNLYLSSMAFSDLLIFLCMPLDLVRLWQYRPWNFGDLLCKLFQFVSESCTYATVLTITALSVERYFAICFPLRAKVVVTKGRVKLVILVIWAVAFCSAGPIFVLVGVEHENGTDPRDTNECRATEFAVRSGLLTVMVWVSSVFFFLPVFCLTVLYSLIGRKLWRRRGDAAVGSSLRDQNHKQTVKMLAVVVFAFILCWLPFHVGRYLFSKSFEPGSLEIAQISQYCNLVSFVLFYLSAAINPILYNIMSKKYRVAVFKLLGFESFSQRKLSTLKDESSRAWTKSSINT
Chain of hERG channel (Q12809 whole entry): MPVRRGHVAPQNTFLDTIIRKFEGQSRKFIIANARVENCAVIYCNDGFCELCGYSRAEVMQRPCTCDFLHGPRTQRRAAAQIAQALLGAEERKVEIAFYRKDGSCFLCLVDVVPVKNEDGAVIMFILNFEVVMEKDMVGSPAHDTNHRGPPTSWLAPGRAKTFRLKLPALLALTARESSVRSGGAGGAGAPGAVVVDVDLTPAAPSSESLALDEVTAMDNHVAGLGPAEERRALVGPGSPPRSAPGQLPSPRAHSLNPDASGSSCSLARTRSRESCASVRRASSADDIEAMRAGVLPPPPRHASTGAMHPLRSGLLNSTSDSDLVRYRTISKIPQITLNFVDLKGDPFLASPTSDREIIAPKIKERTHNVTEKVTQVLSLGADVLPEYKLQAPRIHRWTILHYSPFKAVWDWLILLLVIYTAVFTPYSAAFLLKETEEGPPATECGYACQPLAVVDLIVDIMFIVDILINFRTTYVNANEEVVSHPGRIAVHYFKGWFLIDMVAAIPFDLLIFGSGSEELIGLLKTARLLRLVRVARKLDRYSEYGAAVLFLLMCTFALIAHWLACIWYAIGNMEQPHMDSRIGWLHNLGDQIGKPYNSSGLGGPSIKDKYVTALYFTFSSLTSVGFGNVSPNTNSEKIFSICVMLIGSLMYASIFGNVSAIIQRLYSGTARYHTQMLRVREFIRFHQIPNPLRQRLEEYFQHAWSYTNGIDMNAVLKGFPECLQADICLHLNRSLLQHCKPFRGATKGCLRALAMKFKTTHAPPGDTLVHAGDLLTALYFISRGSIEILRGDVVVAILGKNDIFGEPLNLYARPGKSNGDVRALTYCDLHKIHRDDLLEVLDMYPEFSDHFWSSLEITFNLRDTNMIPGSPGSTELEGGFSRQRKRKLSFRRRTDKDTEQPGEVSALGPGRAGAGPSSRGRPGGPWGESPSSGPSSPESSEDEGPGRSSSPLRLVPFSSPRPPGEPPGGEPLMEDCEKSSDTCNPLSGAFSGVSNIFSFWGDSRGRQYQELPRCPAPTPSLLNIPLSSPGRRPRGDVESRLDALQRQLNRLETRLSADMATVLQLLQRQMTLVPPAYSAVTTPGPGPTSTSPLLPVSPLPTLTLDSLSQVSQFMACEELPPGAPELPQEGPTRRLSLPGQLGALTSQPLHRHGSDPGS
Chain of MDR-1 (P-glycoprotein, Pgp) (P08183 whole entry): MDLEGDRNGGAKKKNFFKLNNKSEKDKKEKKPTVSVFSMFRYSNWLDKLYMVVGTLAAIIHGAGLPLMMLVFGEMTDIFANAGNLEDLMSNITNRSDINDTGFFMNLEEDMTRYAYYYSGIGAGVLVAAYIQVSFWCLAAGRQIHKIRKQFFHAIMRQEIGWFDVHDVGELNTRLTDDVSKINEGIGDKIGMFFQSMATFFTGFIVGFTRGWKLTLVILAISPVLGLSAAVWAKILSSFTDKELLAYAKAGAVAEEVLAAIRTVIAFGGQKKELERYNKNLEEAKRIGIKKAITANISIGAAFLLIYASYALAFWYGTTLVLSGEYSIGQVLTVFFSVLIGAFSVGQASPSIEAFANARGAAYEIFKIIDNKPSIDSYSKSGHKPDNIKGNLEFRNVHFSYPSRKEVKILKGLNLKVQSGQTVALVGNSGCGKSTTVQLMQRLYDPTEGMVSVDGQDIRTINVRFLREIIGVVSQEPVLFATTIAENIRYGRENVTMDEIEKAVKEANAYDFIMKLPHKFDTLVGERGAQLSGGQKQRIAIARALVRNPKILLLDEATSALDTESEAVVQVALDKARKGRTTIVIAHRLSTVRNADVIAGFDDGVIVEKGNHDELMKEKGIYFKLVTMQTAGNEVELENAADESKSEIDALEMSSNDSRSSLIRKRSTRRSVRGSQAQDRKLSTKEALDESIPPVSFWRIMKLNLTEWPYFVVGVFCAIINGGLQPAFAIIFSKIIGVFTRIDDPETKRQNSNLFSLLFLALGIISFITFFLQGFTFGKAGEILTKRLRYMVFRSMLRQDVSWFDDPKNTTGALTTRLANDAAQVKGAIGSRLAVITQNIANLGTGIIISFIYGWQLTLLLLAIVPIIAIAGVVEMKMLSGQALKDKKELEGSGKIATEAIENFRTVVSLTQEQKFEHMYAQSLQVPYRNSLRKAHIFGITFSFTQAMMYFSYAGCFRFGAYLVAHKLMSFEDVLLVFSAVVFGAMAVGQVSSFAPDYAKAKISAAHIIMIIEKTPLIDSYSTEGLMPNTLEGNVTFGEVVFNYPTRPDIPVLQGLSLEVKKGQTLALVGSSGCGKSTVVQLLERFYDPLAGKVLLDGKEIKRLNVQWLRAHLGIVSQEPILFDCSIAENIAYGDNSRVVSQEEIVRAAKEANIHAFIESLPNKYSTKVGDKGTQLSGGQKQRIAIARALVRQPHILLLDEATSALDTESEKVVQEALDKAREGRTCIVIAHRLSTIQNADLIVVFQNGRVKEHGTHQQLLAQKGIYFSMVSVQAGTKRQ
Chain of Rat Ghrelin Receptor (GHS-R 1A) (O08725 whole entry): as the sequence (Q99P50 whole entry) above, with S30P, S249A counted along it
Chain of CYP3A4 (P08684 whole entry): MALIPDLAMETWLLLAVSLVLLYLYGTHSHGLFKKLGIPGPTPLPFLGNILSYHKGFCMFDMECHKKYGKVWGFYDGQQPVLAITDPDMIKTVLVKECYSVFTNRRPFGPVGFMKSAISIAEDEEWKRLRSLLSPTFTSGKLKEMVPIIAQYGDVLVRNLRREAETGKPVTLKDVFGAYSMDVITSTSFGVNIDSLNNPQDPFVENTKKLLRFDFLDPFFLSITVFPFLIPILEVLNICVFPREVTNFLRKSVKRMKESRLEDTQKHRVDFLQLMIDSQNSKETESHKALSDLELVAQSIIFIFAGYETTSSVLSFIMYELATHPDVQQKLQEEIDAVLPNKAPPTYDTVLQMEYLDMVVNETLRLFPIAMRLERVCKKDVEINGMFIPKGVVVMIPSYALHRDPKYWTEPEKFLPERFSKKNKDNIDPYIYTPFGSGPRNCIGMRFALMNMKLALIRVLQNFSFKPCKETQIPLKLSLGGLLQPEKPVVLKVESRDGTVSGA

For `COc1ccc(Cn2c(CCc3ccccc3)nnc2[C@@H](Cc2c[nH]c3ccccc23)NC(=O)OCC(C)C)cc1.O=C(O)C(F)(F)F` [Cpd 17, {(R)-2-(1H-Indol-3-yl)-1-[4-(4-methoxy-benzyl)-5-phenethyl-4H-[1,2,4]triazol-3-yl]-ethyl}-carbamic acid isobutyl ester], the “Stability in Liver Microsomes Human % Remaining after 1 h Incubation” value in data set [1] is given as 0%. The concentration giving a half-maximal response (EC50) in [2] (marker substrate testosteron, 30 minutes preincubation with NADPH, read-out: CYP3A4 Inhibition Testosteron Preincubation EC50) was 2 µM; in data set [2] (marker substrate testosteron, direct inhibition, human liver microsomes, read-out: CYP3A4 Inhibition Testosteron EC50) it was 10.4 µM; in [7] it was 3.68 µM. For the same molecule, the “Stability in Liver Microsomes Rat % Remaining after 1 h Incubation” value in data set [3] turned out to be 24.8%. The “Inhibition of MDR1 ATPase EC50” value in data set [4] is listed as “no full dose”. For the same molecule, the IC50 was determined as 0.0211 µM in [5]; 0.0314 µM in data set [8]; 0.607 µM in [10] (setting [13]); 0.925 µM in data set [11] (setting [14]); 0.0086 µM in data set [12]. Besides, the Papp A→B at 2 h in [6] amounted to 22.4 ×10⁻⁶ cm/s. Moreover, the Papp B→A at 2 h in data set [6] worked out at 10 ×10⁻⁶ cm/s. Besides, in data set [6], the efflux ratio at 2 h was 0.45. The “Stability in Liver Microsomes Mouse % Remaining (@30 min)” value in data set [9] stood at 0.0%.
In the case of `COc1ccc(Cn2c([C@@H](Cc3ccccc3)NC=O)nnc2[C@@H](Cc2c[nH]c3ccccc23)NC(=O)c2ccccn2)cc1.O=C(O)C(F)(F)F` [Cpd 5, Pyridine-2-carboxylic acid [(R)-1-[5-((R)-1-formylamino-2-phenyl-ethyl)-4-(4-methoxy-benzyl)-4H-[1,2,4]triazol-3-yl]-2-(1H-indol-3-yl)-ethyl]-amide], the “Stability in Liver Microsomes Human % Remaining after 1 h Incubation” value in [1] is given as 0%. In addition, the EC50 in [2] (setting [15]) was 1.2 µM; in data set [2] (setting [16]), 3.8 µM. In addition, the “Stability in Liver Microsomes Rat % Remaining after 1 h Incubation” value in data set [3] is reported as 41.9%. Besides, the “Inhibition of MDR1 ATPase EC50” value in data set [4] is given as “no inhibition”. In addition, the IC50 in data set [5] is 0.0083 µM; in [8] it was 0.0031 µM; in data set [10] (setting [13]), 0.0893 µM; in data set [11] (setting [14]) it was 0.29 µM; in [12], 0.0034 µM. Besides, the Papp A→B at 2 h in data set [6] turned out to be 1.26 ×10⁻⁶ cm/s. In data set [6], the Papp B→A at 2 h is 16.8 ×10⁻⁶ cm/s. For the same molecule, in data set [6], the efflux ratio at 2 h was found to be 13.3. In addition, in data set [7], the “hERG Predictor EC50” value was “no full dose”. For the same molecule, the “Stability in Liver Microsomes Mouse % Remaining (@30 min)” value in data set [9] worked out at 0.0%.
In the case of `COc1ccc(Cn2c([C@@H](Cc3ccccc3)NC(C)=O)nnc2[C@@H](Cc2c[nH]c3ccccc23)NC(=O)c2ccccn2)cc1.O=C(O)C(F)(F)F` [Cpd 4, Pyridine-2-carboxylic acid [(R)-1-[5-((R)-1-acetylamino-2-phenyl-ethyl)-4-(4-methoxy-benzyl)-4H-[1,2,4]triazol-3-yl]-2-(1H-indol-3-yl)-ethyl]-amide], the “Stability in Liver Microsomes Human % Remaining after 1 h Incubation” value in data set [1] is recorded as 9.1%. The EC50 in [2] (setting [15]) is 2.3 µM; in data set [2] (setting [16]), 3.9 µM. Moreover, the “Stability in Liver Microsomes Rat % Remaining after 1 h Incubation” value in data set [3] was 46.7%. Further, in data set [4], the “Inhibition of MDR1 ATPase EC50” value is “no full dose”. Moreover, the Papp A→B at 2 h in data set [6] was determined as 1.41 ×10⁻⁶ cm/s. Further, the Papp B→A at 2 h in [6] was determined as 25.4 ×10⁻⁶ cm/s. In addition, in [6], the efflux ratio at 2 h was found to be 18. Also, the “hERG Predictor EC50” value in [7] is “no full dose”. Also, in data set [9], the “Stability in Liver Microsomes Mouse % Remaining (@30 min)” value came to 0.0%. Besides, the IC50 in data set [10] came to 0.0687 µM; in data set [11] it was 0.239 µM.
